# Assay results reported in patent US11446287B2, “Compounds and methods for EP300 or CBP modulation and indications therefor” (Opna Immuno-Oncology SA, priority 2019, dated 2022).
# Target: T1, Recombinant human CBP containing the bromodomain (CBP-BD (1043-1159)) (Homo sapiens, UniProt Q92793)
# T1 construct: Recombinant human CBP bromodomain (CBP-BD (1043-1159)); made in house; host or cells: E. coli BL21-CodonPlus (DE3), modified pET vector
# Experiment: CBP Alphascreen binding assay
# Settings: read-out: CREBBP (CBP) IC50
# Summary of the method: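 Buffer: 50 mM HEPES pH 7.5, 50 mM NaCl, 0.01% BSA, 0.01% Triton X-100, 2 mM DTT. The signal was normalised to plate controls and fitted with a four-parameter curve to give IC50.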
# T1 sequence (Q92793 1081-1197): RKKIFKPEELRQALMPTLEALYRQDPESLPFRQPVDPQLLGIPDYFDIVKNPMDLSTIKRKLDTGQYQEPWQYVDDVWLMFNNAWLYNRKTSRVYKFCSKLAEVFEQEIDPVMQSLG
row,SMILES,IC50 [nM]
1,"Cc1noc(C)c1-c1cnc2c(-c3cccc(C(=O)O)c3)c(C(F)(F)F)n([C@@H](C)c3ccccn3)c2c1 [P-0162, (S)-3-(6-(3,5-dimethylisoxazol-4-yl)-1-(1-(pyridin-2-yl)ethyl)-2-(trifluoromethyl)-1H-pyrrolo[3,2-b]pyridin-3-yl)benzoic acid]",0.1 to 1000
2,"Cc1noc(C)c1-c1cnc2c(C(O)(C3CC3)C3CC3)cn(-c3ccc(C(=O)O)cc3OC(F)(F)F)c2c1 [P-0163, 4-(3-(dicyclopropyl(hydroxy)methyl)-6-(3,5-dimethylisoxazol-4-yl)-1H-pyrrolo[3,2-b]pyridin-1-yl)-3-(trifluoromethoxy)benzoic acid]",0.1 to 1000
3,"Cc1noc(C)c1-c1cnc2c(-c3cc(C(=O)O)ccc3Cl)cn(C(C)(c3ccccn3)c3ccccn3)c2c1 [P-0164, 4-chloro-3-(1-(1,1-di(pyridin-2-yl)ethyl)-6-(3,5-dimethylisoxazol-4-yl)-1H-pyrrolo[3,2-b]pyridin-3-yl)benzoic acid]",0.1 to 1000
4,"CCOc1cc(C(=O)O)cc(OCC)c1-n1cc(C(O)(C2CC2)C2CC2)c2ncc(-c3c(C)noc3C)cc21 [P-0165, 4-(3-(dicyclopropyl(hydroxy)methyl)-6-(3,5-dimethylisoxazol-4-yl)-1H-pyrrolo[3,2-b]pyridin-1-yl)-3,5-diethoxybenzoic acid]",0.1 to 1000
5,"Cc1noc(C)c1-c1cnc2c(-c3cc(C(=O)O)ccc3C#N)cn(C(C)(c3ccccn3)c3ccccn3)c2c1 [P-0166, 4-cyano-3-(1-(1,1-di(pyridin-2-yl)ethyl)-6-(3,5-dimethylisoxazol-4-yl)-1H-pyrrolo[3,2-b]pyridin-3-yl)benzoic acid]",0.1 to 1000
6,"C#Cc1ccccc1-c1cn(C(C)(c2ccccn2)c2ccccn2)c2cc(-c3c(C)noc3C)cnc12 [P-0167, 4-(1-(1,1-di(pyridin-2-yl)ethyl)-3-(2-ethynylphenyl)-1H-pyrrolo[3,2-b]pyridin-6-yl)-3,5-dimethylisoxazole]",0.1 to 1000
7,"CCOc1cc(C(=O)O)cc(OCC)c1-n1cc(-c2ccccc2)c2ncc(-c3c(C)noc3C)cc21 [P-0168, 4-(6-(3,5-dimethylisoxazol-4-yl)-3-phenyl-1H-pyrrolo[3,2-b]pyridin-1-yl)-3,5-diethoxybenzoic acid]",0.1 to 1000
8,"Cc1noc(C)c1-c1cnc2c(-c3ccccc3C#N)cn(C(C)(c3ccccn3)c3ccccn3)c2c1 [P-0169, 2-(1-(1,1-di(pyridin-2-yl)ethyl)-6-(3,5-dimethylisoxazol-4-yl)-1H-pyrrolo[3,2-b]pyridin-3-yl)benzonitrile]",0.1 to 1000
